According to PubChem BioAssay (NCI):
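Each compound was tested at five concentrations against cells in 96-well plates for 48 hours. GI50 is the concentration that inhibits growth by half. TGI: concentration producing complete growth inhibition.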

Assays:
Test in all cases: DTP human tumour cell line panel, 48 h
[1] = tested on: OVCAR-4 ovarian
[2] = tested on: HT29 colon
[3] = tested on: EKVX NSCLC
[4] = tested on: MOLT-4 leukemia
[5] = tested on: SK-MEL-5 melanoma
[6] = tested on: OVCAR-8 ovarian
[7] = tested on: NCI-H522 lung
[8] = tested on: SW-620 colon
[9] = tested on: NCI-H226 lung
[10] = tested on: K-562 leukemia

| Compound | TGI [1] [µM] | TGI [2] [µM] | TGI [3] [µM] | TGI [4] [µM] | TGI [5] [µM] | TGI [6] [µM] | TGI [7] [µM] | TGI [8] [µM] | TGI [9] [µM] | TGI [10] [µM] | GI50 [1] [µM] | GI50 [2] [µM] | GI50 [3] [µM] | GI50 [4] [µM] | GI50 [5] [µM] | GI50 [6] [µM] | GI50 [7] [µM] | GI50 [8] [µM] | GI50 [9] [µM] | GI50 [10] [µM] |
| --- | --- | --- | --- | --- | --- | --- | --- | --- | --- | --- | --- | --- | --- | --- | --- | --- | --- | --- | --- | --- |
| CC1CN1P1(N2CC2C)=NP(N2CC2C)(N2CC2C)=NP(N2CC2C)(N2CC2C)=N1 (stereo not given) | > 50 | > 50 | > 50 | > 50 | > 50 | > 50 | > 50 | > 50 | > 50 | > 50 |  |  |  |  |  |  |  |  |  |  |
| O=C(CN1CCN(c2cc3c(cc2F)c(=O)c(C(=O)N/N=C/c2ccccc2O)cn3C2CC2)CC1)N/N=C\c1ccccc1O | > 100 | > 100 | > 100 | > 100 | 2.95 | > 100 | > 100 | > 100 | > 100 | > 100 | 0.204 | 1.01 | 1.11 | 0.267 | 0.876 | 0.417 | 0.405 | 0.475 | 3.71 | 0.389 |
| CN(C)c1ccc(-c2cc(-c3ccc(Nc4nc(Nc5ccc(Cl)cc5)nc(Nc5ccc(Cl)cc5)n4)cc3)no2)cc1 | > 100 | 66.5 | > 100 | 3.38 | 9.07 | 39 | 11.3 | > 100 | > 100 | 5.3 | 7.19 | 5.08 | 10.5 | 1.32 | 2.07 | 5.91 | 2.57 | 6.28 | 20.2 | 1.72 |
| CC(C)=CCCc1c(C)ccc2c1C(=O)C(=O)C(C(C)C)=C2 | 8.81 | > 22 | > 22 | 20 | > 22 | 7 | 6.39 | 7.05 | > 22 | 8.08 |  |  |  |  |  |  |  |  |  |  |
| Cc1cc(=O)[nH]c2cc3oc4ccccc4c3cc12 | > 100 | > 100 | > 100 | > 48.5 | > 100 | > 100 | > 100 | > 100 | > 100 | > 100 |  |  |  |  |  |  |  |  |  |  |
| O=C(CCl)N1c2ccccc2Oc2ccc3ccccc3c21 | 3.34 | 1.51 | 5.9 | 1.95 | 2.98 | 2.28 | 1.9 | 1.48 | 3.26 | 1.42 | 1.44 | 0.432 | 2.2 | 0.339 | 1.59 | 0.78 | 0.614 | 0.373 | 1.63 | 0.31 |
| O=[N+]([O-])c1cnc(Sc2ccncn2)s1 | 3.27 | 6.37 | 22.1 | 5.04 | 14.6 | 13.1 | 3.34 | 3.29 | 34 | 3.8 | 1.76 | 2.65 | 6.46 | 2 | 4.86 | 3.94 | 1.62 | 1.66 | 8.37 | 1.31 |
| CC(=O)C(CN(C(C)C)C(C)C)C(c1ccccc1)c1c(O)c2ccccc2oc1=O (stereo not given) | > 100 | > 100 | > 100 | > 100 | > 100 | > 100 | > 100 | > 100 | > 100 | > 100 |  |  |  |  |  |  |  |  |  |  |
| CC1=C(C(=O)Nc2ccccc2C)C(c2ccco2)C(C(=O)Nc2ccccc2C)=C(C)N1C | > 100 | > 100 | > 100 | > 100 | > 100 | > 100 | > 100 | > 100 | > 100 | > 100 |  |  |  |  |  |  |  |  |  |  |
| CCCCCCCC(=O)SCC/C=C/[C@@H]1CC(=O)NCc2cccc(n2)C2=N[C@@](C)(CS2)C(=O)N[C@@H](C(C)C)C(=O)N1 | > 33.3 | 7.23 | > 33.3 | > 33.3 | 8.35 | > 33.3 | 1.85 | > 33.3 | > 33.3 | > 33.3 | 0.766 | 0.181 | 1.75 | 1.01 | 0.924 | 0.421 | 0.12 | 6.33 | 7.19 | 0.658 |
| O[C@H]1[C@H]2c3cc4c(cc3CN3CCC(=C[C@@H]1O)[C@H]23)OCO4 | 8.4 | 30.6 | 10.8 | 4.65 | 6.91 | 7.55 | 3.07 | > 36.9 | 29.6 | 12 |  |  |  |  |  |  |  |  |  |  |
| CC1(C)OC(=O)C(=Cc2ccc(O)cc2)C(=O)O1 | > 100 | > 100 | > 100 | > 100 | > 100 | > 100 | > 100 | > 100 | > 100 | > 100 |  |  |  |  |  |  |  |  |  |  |
